In patent publication US10081624B2, “Heterocyclic compound” (Takeda Pharmaceutical Company Limited, priority 2014, dated 2018):

Each compound was assayed against T1, HDAC6 enzyme (Homo sapiens, UniProt Q9UBN7) (assay: HDAC6 enzyme inhibitory assay (HDAC-Glo I/II Assay kit)). Details: 1 μM test compound; read-out: HDAC6 inhibitory rate (%) (1 μM).
T1 construct: prepared by transducing full length HDAC1 and HDAC6 genes into Sf-9 insect cells; GST; purchased SignalChem; host or cells: Sf-9 insect cells
T1 sequence (Q9UBN7 1-1215): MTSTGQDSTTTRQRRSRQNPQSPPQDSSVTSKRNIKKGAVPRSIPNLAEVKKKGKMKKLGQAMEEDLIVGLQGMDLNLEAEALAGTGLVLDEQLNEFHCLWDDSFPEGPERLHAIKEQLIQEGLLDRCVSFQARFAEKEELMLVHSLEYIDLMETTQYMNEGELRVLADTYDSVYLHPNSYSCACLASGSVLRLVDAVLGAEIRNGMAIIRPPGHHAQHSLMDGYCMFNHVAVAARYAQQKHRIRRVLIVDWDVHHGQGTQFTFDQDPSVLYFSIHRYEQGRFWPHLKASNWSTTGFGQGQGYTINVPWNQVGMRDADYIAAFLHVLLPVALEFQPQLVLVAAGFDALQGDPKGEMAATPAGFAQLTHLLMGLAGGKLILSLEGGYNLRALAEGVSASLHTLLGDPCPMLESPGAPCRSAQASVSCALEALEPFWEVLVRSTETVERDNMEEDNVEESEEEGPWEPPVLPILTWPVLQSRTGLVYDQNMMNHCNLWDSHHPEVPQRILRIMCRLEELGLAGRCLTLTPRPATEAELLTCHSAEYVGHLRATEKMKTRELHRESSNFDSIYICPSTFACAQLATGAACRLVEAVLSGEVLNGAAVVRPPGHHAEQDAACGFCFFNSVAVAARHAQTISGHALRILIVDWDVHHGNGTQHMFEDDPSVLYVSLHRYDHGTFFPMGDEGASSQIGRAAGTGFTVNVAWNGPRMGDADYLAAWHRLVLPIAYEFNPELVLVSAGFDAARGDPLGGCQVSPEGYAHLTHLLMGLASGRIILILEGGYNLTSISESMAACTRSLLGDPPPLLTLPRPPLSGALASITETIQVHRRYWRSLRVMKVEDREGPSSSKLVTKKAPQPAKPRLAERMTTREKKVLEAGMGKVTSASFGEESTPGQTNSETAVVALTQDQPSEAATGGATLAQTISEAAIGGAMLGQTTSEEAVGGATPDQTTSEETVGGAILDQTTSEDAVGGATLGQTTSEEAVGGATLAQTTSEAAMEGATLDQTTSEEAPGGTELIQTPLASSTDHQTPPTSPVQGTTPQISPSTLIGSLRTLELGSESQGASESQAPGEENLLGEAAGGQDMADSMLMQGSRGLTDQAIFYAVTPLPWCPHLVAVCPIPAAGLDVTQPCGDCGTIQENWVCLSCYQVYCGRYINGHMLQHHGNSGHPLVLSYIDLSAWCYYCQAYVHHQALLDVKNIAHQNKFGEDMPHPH
Type: biochemical
Experimental: HDAC1 enzyme and HDAC6 enzyme each prepared by transducing full length HDAC1 and HDAC6 genes into Sf-9 insect cells and purifying by GST affinity column were purchased from SignalChem. Using these enzymes, HDAC1 and/or HDAC6 enzyme inhibitory activities of the compound of the present invention were evaluated. Enzymes were used after preserved at −70° C. HDAC1 or HDAC6 enzyme inhibitory activity of the compound of the present invention was measured using HDAC-Glo™ I/II Assay kit (Promega) according to the following experimental method. The test compound diluted with assay buffer (24 mM Tris-HCl (pH 7.5), 1 mM MgCl2, 0.35 mM KCl, 135 mM NaCl, 0.6 mM Glutathione, 0.01% Tween-20) was added to a 384-well plate by each 2 μL. Then, HDAC1 or HDAC6 enzyme solution diluted with assay buffer was added thereto by each 4 μL, and the plate was incubated at room temperature for 60 min. After incubated, HDAC substrate-Developer solution prepared according to Promega protocol attached to the assay kit was added to the 384-well plate by each 2 μL, and the enzyme reaction was started. After reacting at room temperature for 20 min, luminescence level was measured using plate reader Envision (PerkinElmer). The inhibitory activity of each compound was calculated as a relative activity value when luminescence level in wells without enzyme is considered as 100% inhibition.

Row | SMILES | inhibition at 1 µM
1 | COc1cccc(C(=O)N2CCOCC2CNC(=O)c2ccc(-c3noc(C(F)(F)F)n3)cc2)c1 (stereo in doubt) [Example 114, N-(((3R)-4-(3-methoxybenzoyl)morpholin-3-yl)methyl)-4-(5-(trifluoromethyl)-1,2,4-oxadiazol-3-yl)benzamide] | 92%
2 | N#Cc1ccccc1C(=O)N1CCOCC1CNC(=O)c1ccc(-c2noc(C(F)(F)F)n2)cc1 (stereo in doubt) [Example 115, N-(((3R)-4-(2-cyanobenzoyl)morpholin-3-yl)methyl)-4-(5-(trifluoromethyl)-1,2,4-oxadiazol-3-yl)benzamide] | 94%
3 | N#Cc1cccc(C(=O)N2CCOCC2CNC(=O)c2ccc(-c3noc(C(F)(F)F)n3)cc2)c1 (stereo in doubt) [Example 116, N-(((3R)-4-(3-cyanobenzoyl)morpholin-3-yl)methyl)-4-(5-(trifluoromethyl)-1,2,4-oxadiazol-3-yl)benzamide] | 91%
4 | N#Cc1ccc(C(=O)N2CCOCC2CNC(=O)c2ccc(-c3noc(C(F)(F)F)n3)cc2)cc1 (stereo in doubt) [Example 117, N-(((3R)-4-(4-cyanobenzoyl)morpholin-3-yl)methyl)-4-(5-(trifluoromethyl)-1,2,4-oxadiazol-3-yl)benzamide] | 93%
5 | O=C(NCC1COCCN1C(=O)Nc1ccccc1)c1ccc(-c2noc(C(F)(F)F)n2)cc1 (centres unmarked) [Example 2, N-phenyl-3-(((4-(5-(trifluoromethyl)-1,2,4-oxadiazol-3-yl)benzoyl)amino)methyl)morpholine-4-carboxamide] | 86%
6 | Cc1cc(C(=O)N2CCOC[C@@H]2CNC(=O)c2ccc(-c3noc(C(F)(F)F)n3)cc2)cc(O)n1 [Example 50, N-(((3S)-4-(2-hydroxy-6-methylisonicotinoyl)morpholin-3-yl)methyl)-4-(5-(trifluoromethyl)-1,2,4-oxadiazol-3-yl)benzamide] | 95%
7 | O=C(NC[C@H]1COCCN1C(=O)c1cc2ccccc2o1)c1ccc(-c2noc(C(F)(F)F)n2)cc1 [Example 53, N-(((3S)-4-(1-benzofuran-2-ylcarbonyl)morpholin-3-yl)methyl)-4-(5-(trifluoromethyl)-1,2,4-oxadiazol-3-yl)benzamide] | 95%
8 | O=C(NC[C@H]1COCCN1C(=O)c1cc2ncccn2n1)c1ccc(-c2noc(C(F)(F)F)n2)cc1 [Example 54, N-(((3S)-4-(pyrazolo[1,5-a]pyrimidin-2-ylcarbonyl)morpholin-3-yl)methyl)-4-(5-(trifluoromethyl)-1,2,4-oxadiazol-3-yl)benzamide] | 95%
9 | O=C(NC[C@H]1COCCN1C(=O)C(c1ccccc1)c1ccccc1)c1ccc(-c2noc(C(F)(F)F)n2)cc1 [Example 57, N-(((3S)-4-(diphenylacetyl)morpholin-3-yl)methyl)-4-(5-(trifluoromethyl)-1,2,4-oxadiazol-3-yl)benzamide] | 56%
10 | O=C(NC[C@H]1COCCN1C(=O)COc1ccccc1)c1ccc(-c2noc(C(F)(F)F)n2)cc1 [Example 58, N-(((3S)-4-(phenoxyacetyl)morpholin-3-yl)methyl)-4-(5-(trifluoromethyl)-1,2,4-oxadiazol-3-yl)benzamide] | 93%
11 | Cc1cc(C(=O)N2CCOC[C@@H]2CNC(=O)c2ccc(-c3noc(C(F)(F)F)n3)cc2)on1 [Example 62, N-(((3S)-4-((3-methyl-1,2-oxazol-5-yl)carbonyl)morpholin-3-yl)methyl)-4-(5-(trifluoromethyl)-1,2,4-oxadiazol-3-yl)benzamide] | 93%
12 | O=C(NC[C@H]1COCCN1C(=O)C1CC1)c1ccc(-c2noc(C(F)(F)F)n2)cc1 [Example 75, N-(((3S)-4-(cyclopropylcarbonyl)morpholin-3-yl)methyl)-4-(5-(trifluoromethyl)-1,2,4-oxadiazol-3-yl)benzamide] | 92%
13 | O=C(NC[C@H]1COCCN1C(=O)CC1CC1)c1ccc(-c2noc(C(F)(F)F)n2)cc1 [Example 76, N-(((3S)-4-(cyclopropylacetyl)morpholin-3-yl)methyl)-4-(5-(trifluoromethyl)-1,2,4-oxadiazol-3-yl)benzamide] | 90%
14 | O=C(NC[C@H]1COCCN1C(=O)C1CCCO1)c1ccc(-c2noc(C(F)(F)F)n2)cc1 (stereo partly drawn) [Example 78, N-(((3S)-4-(tetrahydrofuran-2-ylcarbonyl)morpholin-3-yl)methyl)-4-(5-(trifluoromethyl)-1,2,4-oxadiazol-3-yl)benzamide] | 88%

The next lines start with the values.

Row | inhibition at 1 µM | SMILES
15 | 96% | O=C(NCC1COCCN1C(=O)c1ccncc1)c1ccc(-c2noc(C(F)(F)F)n2)cc1 (stereo in doubt) [Example 120, N-(((3R)-4-isonicotinoylmorpholin-3-yl)methyl)-4-(5-(trifluoromethyl)-1,2,4-oxadiazol-3-yl)benzamide]
16 | 87% | Cc1cc(C(=O)N2CCOCC2CNC(=O)c2ccc(-c3noc(C(F)(F)F)n3)cc2)ccn1 (stereo in doubt) [Example 121, N-(((3R)-4-(2-methylisonicotinoyl)morpholin-3-yl)methyl)-4-(5-(trifluoromethyl)-1,2,4-oxadiazol-3-yl)benzamide]
17 | 93% | Cn1ccnc1C(=O)N1CCOCC1CNC(=O)c1ccc(-c2noc(C(F)(F)F)n2)cc1 (centres unmarked) [Example 16, N-((4-((1-methyl-1H-imidazol-2-yl)carbonyl)morpholin-3-yl)methyl)-4-(5-(trifluoromethyl)-1,2,4-oxadiazol-3-yl)benzamide]
18 | 61% | Cn1cnc(C(=O)N2CCOCC2CNC(=O)c2ccc(-c3noc(C(F)(F)F)n3)cc2)c1 (centres unmarked) [Example 17, N-((4-((1-methyl-1H-imidazol-4-yl)carbonyl)morpholin-3-yl)methyl)-4-(5-(trifluoromethyl)-1,2,4-oxadiazol-3-yl)benzamide]
19 | 75% | Cn1ccc(C(=O)N2CCOC[C@@H]2CNC(=O)c2ccc(-c3noc(C(F)(F)F)n3)cc2)n1 [Example 65, N-(((3S)-4-((1-methyl-1H-pyrazol-3-yl)carbonyl)morpholin-3-yl)methyl)-4-(5-(trifluoromethyl)-1,2,4-oxadiazol-3-yl)benzamide]
20 | 88% | Cn1cc(C(=O)N2CCOC[C@@H]2CNC(=O)c2ccc(-c3noc(C(F)(F)F)n3)cc2)cn1 [Example 66, N-(((3S)-4-((1-methyl-1H-pyrazol-4-yl)carbonyl)morpholin-3-yl)methyl)-4-(5-(trifluoromethyl)-1,2,4-oxadiazol-3-yl)benzamide]
21 | 89% | O=C(NC[C@H]1COCCN1C(=O)c1cc[nH]n1)c1ccc(-c2noc(C(F)(F)F)n2)cc1 [Example 71, N-(((3S)-4-(1H-pyrazol-3-ylcarbonyl)morpholin-3-yl)methyl)-4-(5-(trifluoromethyl)-1,2,4-oxadiazol-3-yl)benzamide]
22 | 89% | Cc1ccc(C(=O)N2CCOC[C@@H]2CNC(=O)c2ccc(-c3noc(C(F)(F)F)n3)cc2)s1 [Example 72, N-(((3S)-4-((5-methyl-2-thienyl)carbonyl)morpholin-3-yl)methyl)-4-(5-(trifluoromethyl)-1,2,4-oxadiazol-3-yl)benzamide]
23 | 98% | Cc1csc(C(=O)N2CCOC[C@@H]2CNC(=O)c2ccc(-c3noc(C(F)(F)F)n3)cc2)c1 [Example 73, N-(((3S)-4-((4-methyl-2-thienyl)carbonyl)morpholin-3-yl)methyl)-4-(5-(trifluoromethyl)-1,2,4-oxadiazol-3-yl)benzamide]
